Assay results published in patent US8546409B2, “Methods of treatment for solid tumors” (priority 2009, dated 2013).

Key:
Type in all cases: cell-based
[1] = test system: MCF7; assay: NCI panel growth inhibition, MCF7; settings: Homo sapiens, Breast Cancer
Source text: (§1) Compound I has also been tested in a battery of tumor cell assays known as the NCI panel.

[2] = test system: HCT-116; assay: NCI panel growth inhibition, HCT-116; settings: Homo sapiens, Colon Cancer
Source text: as §1

[3] = test system: MALME-3M; assay: NCI panel growth inhibition, MALME-3M; settings: Homo sapiens, Melanoma
Source text: as §1

[4] = test system: PC-3; assay: NCI panel growth inhibition, PC-3; settings: Homo sapiens, Prostate
Source text: as §1

[5] = test system: LOX IMVI; assay: NCI panel growth inhibition, LOX IMVI; settings: Homo sapiens, Melanoma
Source text: as §1

[6] = test system: SK-MEL-2; assay: NCI panel growth inhibition, SK-MEL-2; settings: Homo sapiens, Melanoma
Source text: as §1

[7] = test system: NCI-H460; assay: NCI panel growth inhibition, NCI-H460; settings: Homo sapiens, Non-Small Cell Lung Cancer
Source text: as §1

[8] = test system: HCC-2998; assay: NCI panel growth inhibition, HCC-2998; settings: Homo sapiens, Colon Cancer
Source text: as §1

[9] = test system: 786-0; assay: NCI panel growth inhibition, 786-0; settings: Homo sapiens, Renal
Source text: as §1

[10] = test system: BT-549; assay: NCI panel growth inhibition, BT-549; settings: Homo sapiens, Breast Cancer
Source text: as §1

[11] = test system: OVCAR-4; assay: NCI panel growth inhibition, OVCAR-4; settings: Homo sapiens, Ovarian
Source text: as §1

[12] = test system: NCI panel cancer cell lines; assay: NCI panel of tumor cell assays, summary over cell lines; settings: all NCI panel cell lines
Source text: Compound I has also been tested in a battery of tumor cell assays known as the NCI panel. […] Using this measure, 1.8% of cell lines were particularly sensitive to Compound B at this level, while 39% were particularly sensitive to Compound I at the same concentration. […] Loss of PTEN activity often occurs in cancers, and enhances the sensitivity of a tumor to PI3K inhibitors. […] The following Table summarizes the cell lines found to be sensitive to Compound I and the known mutations in those cell lines.

[13] = test system: MDA-MB-435; assay: NCI panel growth inhibition, MDA-MB-435; settings: Homo sapiens, Breast Cancer
Source text: as §1

[14] = test system: NCI-H322M; assay: NCI panel growth inhibition, NCI-H322M; settings: Homo sapiens, Non-Small Cell Lung Cancer
Source text: as §1

[15] = test system: HCT-15; assay: NCI panel growth inhibition, HCT-15; settings: Homo sapiens, Colon Cancer
Source text: as §1

[16] = test system: KM12; assay: NCI panel growth inhibition, KM12; settings: Homo sapiens, Colon Cancer
Source text: as §1

[17] = test system: ADR-RES; assay: NCI panel growth inhibition, ADR-RES; settings: Breast Cancer
Source text: as §1

[18] = test system: DU-145; assay: NCI panel growth inhibition, DU-145; settings: Homo sapiens, Prostate
Source text: as §1

[19] = test system: SW-620; assay: NCI panel growth inhibition, SW-620; settings: Homo sapiens, Colon Cancer
Source text: as §1

[20] = test system: SF-539; assay: NCI panel growth inhibition, SF-539; settings: Homo sapiens, CNS Cancer
Source text: as §1

[21] = test system: SNB-75; assay: NCI panel growth inhibition, SNB-75; settings: Homo sapiens, CNS Cancer
Source text: as §1

[22] = test system: EKVX; assay: NCI panel growth inhibition, EKVX; settings: Homo sapiens, Non-Small Cell Lung Cancer
Source text: as §1

[23] = test system: ACHN; assay: NCI panel growth inhibition, ACHN; settings: Homo sapiens, Renal
Source text: as §1

[24] = test system: OVCAR-3; assay: NCI panel growth inhibition, OVCAR-3; settings: Homo sapiens, Ovarian
Source text: as §1

[25] = test system: SNB-19; assay: NCI panel growth inhibition, SNB-19; settings: Homo sapiens, CNS Cancer
Source text: as §1

[26] = test system: SF-268; assay: NCI panel growth inhibition, SF-268; settings: Homo sapiens, CNS Cancer
Source text: as §1

[27] = test system: OVCAR-5; assay: NCI panel growth inhibition, OVCAR-5; settings: Homo sapiens, Ovarian
Source text: as §1

[28] = test system: U251; assay: NCI panel growth inhibition, U251; settings: Homo sapiens, U-251, CNS Cancer
Source text: as §1

[29] = test system: RXF 393; assay: NCI panel growth inhibition, RXF 393; settings: Homo sapiens, Renal
Source text: as §1

[30] = test system: M14; assay: NCI panel growth inhibition, M14; settings: Homo sapiens, Melanoma
Source text: as §1

[31] = test system: NCI-H522; assay: NCI panel growth inhibition, NCI-H522; settings: Homo sapiens, Non-Small Cell Lung Cancer
Source text: as §1

[32] = test system: SK-MEL-28; assay: NCI panel growth inhibition, SK-MEL-28; settings: Homo sapiens, Melanoma
Source text: as §1

[33] = test system: NCI-H226; assay: NCI panel growth inhibition, NCI-H226; settings: Homo sapiens, Non-Small Cell Lung Cancer
Source text: as §1

[34] = test system: CAKI-1; assay: NCI panel growth inhibition, CAKI-1; settings: Homo sapiens, Renal
Source text: as §1

[35] = test system: COLO 205; assay: NCI panel growth inhibition, COLO 205; settings: Homo sapiens, Colon Cancer
Source text: as §1

[36] = test system: MDA-MB-231; assay: NCI panel growth inhibition, MDA-MB-231; settings: Homo sapiens, Breast Cancer
Source text: as §1

[37] = test system: IGROV1; assay: NCI panel growth inhibition, IGROV1; settings: Homo sapiens, IGROV-1, Ovarian
Source text: as §1

[38] = test system: MDA-MB-468; assay: NCI panel growth inhibition, MDA-MB-468; settings: Homo sapiens, Breast Cancer
Source text: as §1

[39] = test system: A549; assay: NCI panel growth inhibition, A549; settings: Homo sapiens, Non-Small Cell Lung Cancer
Source text: as §1

[40] = test system: UO-31; assay: NCI panel growth inhibition, UO-31; settings: Homo sapiens, Renal
Source text: as §1

[41] = test system: T-47D; assay: NCI panel growth inhibition, T-47D; settings: Homo sapiens, T47D, Breast Cancer
Source text: as §1

[42] = test system: SN12C; assay: NCI panel growth inhibition, SN12C; settings: Homo sapiens, Renal
Source text: as §1

[43] = test system: SK-OV-3; assay: NCI panel growth inhibition, SK-OV-3; settings: Homo sapiens, Ovarian
Source text: as §1

[44] = test system: SK-MEL-5; assay: NCI panel growth inhibition, SK-MEL-5; settings: Homo sapiens, Melanoma
Source text: as §1

[45] = test system: HOP-62; assay: NCI panel growth inhibition, HOP-62; settings: Homo sapiens, Non-Small Cell Lung Cancer
Source text: as §1

[46] = test system: A498; assay: NCI panel growth inhibition, A498; settings: Homo sapiens, Renal
Source text: as §1

[47] = test system: SF-295; assay: NCI panel growth inhibition, SF-295; settings: Homo sapiens, CNS Cancer
Source text: as §1

[48] = test system: HT29; assay: NCI panel growth inhibition, HT29; settings: Homo sapiens, HT-29, Colon Cancer
Source text: as §1

[49] = test system: HOP-92; assay: NCI panel growth inhibition, HOP-92; settings: Homo sapiens, Non-Small Cell Lung Cancer
Source text: as §1

[50] = test system: TK-10; assay: NCI panel growth inhibition, TK-10; settings: Homo sapiens, Renal
Source text: as §1

[51] = test system: UACC-62; assay: NCI panel growth inhibition, UACC-62; settings: Homo sapiens, Melanoma
Source text: as §1

[52] = test system: OVCAR-8; assay: NCI panel growth inhibition, OVCAR-8; settings: Homo sapiens, Ovarian
Source text: as §1

[53] = test system: NCI-H23; assay: NCI panel growth inhibition, NCI-H23; settings: Homo sapiens, Non-Small Cell Lung Cancer
Source text: as §1

[54] = test system: UACC-257; assay: NCI panel growth inhibition, UACC-257; settings: Homo sapiens, Melanoma
Source text: as §1

[55] = test system: HS 578T; assay: NCI panel growth inhibition, HS 578T; settings: Homo sapiens, Breast Cancer
Source text: as §1

For `CC[C@H](Nc1ncnc2[nH]cnc12)c1nc2cccc(F)c2c(=O)n1-c1ccccc1` [Compound B, reference compound], the GI50 [1] was 7.08 µM, the GI50 [2] was 54.3 µM and the GI50 [3] was 31.6 µM. The GI50 [4] was 12 µM, the GI50 [5] was 31.1 µM and the GI50 [6] was 100 µM. For the same compound, the GI50 [7] was 34.7 µM, the GI50 [8] was 53.3 µM and the GI50 [9] was 5.48 µM. For the same compound, the GI50 [10] was 14.3 µM, the GI50 [11] was 100 µM and the “Cell lines particularly sensitive (GI50 of 2 micromolar or less)” value [12] was 1.8%. For the same compound, the GI50 [13] was 16.4 µM, the GI50 [14] was 32.2 µM and the GI50 [15] was 48.4 µM. It also gave a GI50 [16] of 54.1 µM, a GI50 [17] of 77.9 µM and a GI50 [18] of 43.8 µM. For the same compound, the GI50 [19] was 86.4 µM, the GI50 [20] was 28.6 µM and the GI50 [21] was 2.96 µM. For the same compound, the GI50 [22] was 28.2 µM, the GI50 [23] was 24.4 µM and the GI50 [24] was 15.5 µM. For the same compound, the GI50 [25] was 54.8 µM, the GI50 [26] was 29.8 µM and the GI50 [27] was 40.1 µM. It also gave a GI50 [28] of 70.4 µM, a GI50 [29] of 74.2 µM and a GI50 [30] of 58.4 µM. It also gave a GI50 [31] of 52.7 µM, a GI50 [32] of 38.6 µM and a GI50 [33] of 100 µM. The GI50 [34] was 13.4 µM, the GI50 [35] was 30.1 µM and the GI50 [36] was 100 µM. It also gave a GI50 [37] of 3.54 µM, a GI50 [38] of 13.6 µM and a GI50 [39] of 50.4 µM. The GI50 [40] was 5.32 µM, the GI50 [41] was 3.18 µM and the GI50 [42] was 11 µM. The GI50 [43] was 13.8 µM, the GI50 [44] was 32.9 µM and the GI50 [45] was 39.7 µM. It also gave a GI50 [46] of 2.38 µM, a GI50 [47] of 8.18 µM and a GI50 [48] of 39.1 µM. It also gave a GI50 [49] of 34.8 µM, a GI50 [50] of 31.7 µM and a GI50 [51] of 4.2 µM. For the same compound, the GI50 [52] was 96 µM, the GI50 [53] was 100 µM and the GI50 [54] was 33.5 µM. The GI50 [55] was 6.91 µM.
